Data set [1] can be described thus: Cytotoxicity assay on uninfected cells. Particulars: African green monkey.
For data set [2], the system named is MAYV. Nature of the data set: Antiviral CPE reduction assay. The format is cell-based, Mayaro virus (MAYV) strain TC625. Conditions: for Activity against MAYV (inhibition of MAYV-induced CPE): MOI 0.01.
In data set [3] the test system is MAYV. Nature of the data set: Delay of treatment assay. The class given is cell-based, Mayaro virus (MAYV) strain TC625. Conditions: for reduction of intracellular RNA by time of addition: EIDD-1931 25 µM, favipiravir 300 µM, suramin 500 µM, qRT-PCR. In general terms: Quantitative PCR measures a nucleic acid by following its amplification.
Data set [4] relates to MAYV. The class given is cell-based, Mayaro virus (MAYV) strain TC625. Conditions: for decrease in relative infectivity (ratio infectious virus vs. viral RNA): supernatant.
A further data set deals with CHIKV. Particulars: against CHIKV; cited from earlier work.
For a further data set, the system named is Vero cells. Nature of the data set: Cytotoxicity assay on uninfected cells.
A short description of a further data set: in vitro. Conditions: African green monkey.
Data set [5] relates to MAYV. Conditions: virus yield assay, cited from earlier work.

The structures appear in SMILES notation. Where two headings read alike, the source gives them in different places.

For `C[C@@]1(O)[C@H](O)[C@@H](CO)O[C@H]1n1ccc(N)nc1=O` [2’CMC, 2′-C-methylcytidine], the CC50 at 3 days in data set [1] was determined as 167 ± 7 µM. Further, the EC50 in the data set on MAYV [2] (Mayaro virus, Vero, 72 h) is > 20 µM. For the same molecule, the “Activity against MAYV (inhibition of MAYV-induced CPE)” value in the data set on MAYV [2] (Vero cells) is reported as “not able to inhibit MAYV”.

As to `NC(=O)c1nc(F)c[nH]c1=O` [Favipiravir], the CC50 at 3 days in data set [1] was found to be 2840 ± 86 µM. In addition, the EC50 in the data set on MAYV [2] (Mayaro virus, Vero, 72 h) was 79 ± 4 µM. Moreover, the “reduction of viral titers” value in the data set with MAYV [3] (300 µM, added until 2 h pi, […], 10 h pi) is on record as 2–3 log10. For the same molecule, the “reduction of intracellular RNA by time of addition” value (shortened to “reduction of intracellular RNA”) in the data set on MAYV [3] ([…], 10 h pi) is “only when added at early time points (2 h prior to infection and 0 h pi)”. In the data set with MAYV [4], the “decrease in infectious virus” value is on record as ~ 8 log10; the “reduction in viral RNA and infectious virus content with increasing concentrations” value (“reduction … with increasing concentrations” below) was “dose-dependent reduction”. Moreover, the “inhibitory effect in virus yield assay” value in the data set with MAYV [4] (75 µM) is “inhibitory effect was still observed”. In addition, in the data set on MAYV [4] (starting from 75 µM), the “decrease in relative infectivity (ratio infectious virus vs. viral RNA)” value was ~ 100 fold.

As for `Nc1ncnc2c([C@@H]3N[C@H](CO)[C@@H](O)[C@H]3O)c[nH]c12` [Galidesivir], the CC50 at 3 days in data set [1] was found to be 238 ± 36 µM. For the same molecule, in the data set on MAYV [2] (Mayaro virus, Vero, 72 h), the EC50 is > 100 µM. The “Activity against MAYV (inhibition of MAYV-induced CPE)” value in the data set on MAYV [2] (Vero cells) is reported as “not able to inhibit MAYV”.

With `CCN(CC)CCCC(C)Nc1ccnc2cc(Cl)ccc12` (centres unmarked) [Chloroquine], the EC50 with MAYV [2] (Mayaro virus, Vero, 72 h) is > 200 µM; in the data set on CHIKV, ~10 µM. For the same molecule, the “Activity against MAYV (inhibition of MAYV-induced CPE)” value with MAYV [2] (Vero cells) was “did not show activity against MAYV”.

For `O=c1nc(NO)ccn1[C@@H]1O[C@H](CO)[C@@H](O)[C@H]1O` [EIDD-1931, β-D-N^4-hydroxycytidine], the CC50 in the data set on Vero cells (uninfected Vero cells, day 3, microscopically or MTS/PMS) is > 100 µM. The EC50 in the data set with MAYV [2] (Vero cells, MAYV MOI 0.01, day 3 pi, MTS/PMS read-out) turned out to be 1.6 ± 0.5 µM. Besides, in the data set on MAYV [3] (25 µM, added at 6 h pi), the “activity on infectious virus” value is listed as “modest activity”. Also, in the data set with MAYV [3] (25 µM, added until 4 h pi, […], 10 h pi), the “decrease in infectious virus” value is given as 2–3 log10. Besides, the “reduction of intracellular RNA” value in the data set with MAYV [3] ([…], 10 h pi) is recorded as “still resulted in a reduction when added until 2 h pi”. For the same molecule, in the data set with MAYV [4], the “decrease in infectious virus” value is recorded as ~ 8 log10; the “reduction … with increasing concentrations” value is given as “dose-dependent reduction”. The “inhibitory effect in virus yield assay” value in the data set with MAYV [4] (3.1 µM) was “inhibitory effect was still observed”. Moreover, the “decrease in relative infectivity (ratio infectious virus vs. viral RNA)” value in the data set on MAYV [4] (starting from 6 µM) is ~ 1000 fold.

As for `CCOC(=O)c1c(CSc2ccccc2)n(C)c2cc(Br)c(O)c(CN(C)C)c12` [Arbidol], the CC50 at 3 days in data set [1] is > 100 µM. Moreover, the EC50 in the data set with MAYV [2] (Mayaro virus, Vero, 72 h) was > 60 µM; with CHIKV it was 12 µM. In addition, the “Activity against MAYV (inhibition of MAYV-induced CPE)” value in the data set with MAYV [2] (Vero cells) is “did not show activity against MAYV”.

Consider `Cc1ccc(C(=O)Nc2ccc(S(=O)(=O)O)c3cc(S(=O)(=O)O)cc(S(=O)(=O)O)c23)cc1NC(=O)c1cccc(NC(=O)Nc2cccc(C(=O)Nc3cc(C(=O)Nc4ccc(S(=O)(=O)O)c5cc(S(=O)(=O)O)cc(S(=O)(=O)O)c45)ccc3C)c2)c1` [Suramin], for which, in the data set on MAYV [2] (Mayaro virus, Vero, 72 h), the EC50 was 124 ± 26 µM. In addition, the CC50 at 3 days in “in vitro” is > 2000 µM. Further, the “decrease of infectious virus titers” value in the data set with MAYV [3] was ~ −2 log10. Moreover, the “reduction of intracellular RNA” value in the data set with MAYV [3] ([…], 10 h pi) was “only when added at early time points (2 h prior to infection and 0 h pi)”. In addition, in the data set on MAYV [4], the “decrease in infectious virus” value was ~ 5 log10; the “reduction … with increasing concentrations” value is on record as “dose-dependent reduction”. Also, the “relative infectivity of MAYV” value in the data set with MAYV [4] (all concentrations with the exception of the highest tested (500 µM)) is reported as “not affected”.

In the case of `CCC(CC)COC(=O)[C@H](C)N[P@](=O)(OC[C@H]1O[C@@](C#N)(c2ccc3c(N)ncnn23)[C@H](O)[C@@H]1O)Oc1ccccc1` [Remdesivir], the EC50 with MAYV [2] (Mayaro virus, Vero, 72 h) is > 100 µM. The “Activity against MAYV (inhibition of MAYV-induced CPE)” value with MAYV [2] (Vero cells) is on record as “not able to inhibit MAYV”. The molecule further gave a CC50 at 3 days in “in vitro” of 297 ± 101 µM.

With `C[C@@]1(O)[C@H](O)[C@@H](CO)O[C@H]1n1ccc2c(N)ncnc21` [7DMA, 7-Deaza-2′-C-methyladenosine], the CC50 at 3 days in data set [1] is > 600 µM. For the same molecule, the EC50 with MAYV [2] (Mayaro virus, Vero, 72 h) is > 60 µM. For the same molecule, the “Activity against MAYV (inhibition of MAYV-induced CPE)” value in the data set with MAYV [2] (Vero cells) is recorded as “not able to inhibit MAYV”.

Turning to `NC(=O)c1ncn([C@@H]2O[C@H](CO)[C@@H](O)[C@H]2O)n1` [Ribavirin, 1-(β-D-ribofuranosyl)-1H-1,2,4-triazole-3-carboxamide], the “signs of toxicity determined microscopically” value with Vero cells (concentrations higher than 200 µM) is recorded as “signs of toxicity were determined microscopically at higher concentrations”. This molecule also showed a CC50 at 3 days in data set [1] of 250 ± 81 µM. The EC50 with MAYV [2] (Mayaro virus, Vero, 72 h) was > 200 µM; with MAYV [5] (strain TR4675, MOI 0.05), 62.5 µM; in the data set on MAYV [5] (strain TR4675, MOI 0.1), 255 µM. In addition, the “Activity against MAYV (inhibition of MAYV-induced CPE)” value with MAYV [2] (Vero cells) is listed as “not active against MAYV”. Also, the “blocking MAYV infectivity” value in the data set on MAYV [4] was “not effective”.

In general, EC50 refers to the concentration that produces a half-maximal response.

Source of the values: PMC8065421, “Repurposing Drugs for Mayaro Virus: Identification of EIDD-1931, Favipiravir and Suramin as Mayaro Virus Inhibitors” (Microorganisms, 2021).
